Results from patent US8476240B2, “Histidine related compounds for identifying and blocking amyloid beta ion channels” (priority 2008, dated 2013).
Entries after “also recorded” stand apart in the source; their conditions may differ. Read-outs that look alike come from different tables or passages of the source. Residues, ends and D or L forms follow the SMILES beside them.

Experiments:
Aβ channel = assay: Aβ channels incorporated into planar lipid bilayers, ionic current recording; format: biochemical; settings: for time to block the flow of ionic charges through Aβ channels: 41.5 μM (FIG. 5B left plot); for reversibility of Aβ channel blockage after washing the chamber / blocking of Aβ channel current activity: planar lipid bilayer; for reversibility of Aβ channel blockage after washing the chamber: after washing off the blocker; for blocking of Aβ channel current activity: zero membrane potential; for blocking of the flow of ionic charges conducted by Aβ channels: His 41.5 μM, NAHIS compounds 16.6 μM (FIG. 5B); for time to reduce the flow of ionic charges through the membrane by 50%: 16.6 μM
Method: Planar Lipid Bilayer Methodology: A suspension of palmitoyloleoyl phosphatidylserine and palmitoyloleoyl phosphatidylethanolamine, (Avanti, Alabaster, Ala.) 1:1, in η-decane was prepared. This suspension was applied to an orifice of about 100-120 μm in diameter with a Teflon film separating two compartments, 1.2 ml volume each. The ionic solutions in the compartments contained asymmetrical concentrations of CsCl (200cis/50trans mM) and symmetrical 0.5 mM CaCl2 and 5 mM K-HEPES, pH 7. The two ionic compartments were electrically connected to the input of a voltage clamp amplifier. Current was recorded using a patch clamp amplifier and data were stored on computer disk memory. Off-line analysis of the channel activity was carried out using the software package pClamp (Axon Instruments, Foster City, Calif.). Incorporation of Aβ peptide into the bilayer was obtained by adding an aliquot of proteoliposome (Aβ-liposome) suspension to the solution in the cis side of the planar lipid bilayer chamber and stirring.
Preparation of Proteoliposomes: Liposomes were prepared by hydration of air-dried palmitoyloleoyl phosphatidylserine (10 mg) with 1 M potassium aspartate, pH 7.0 (1 ml), followed by water sonication for 5 min. The liposome suspension (50 μl) was mixed with a stock aqueous solution of Aβ peptide (1 mg/ml, obtained from Bachem, Torrance, Calif. and from AnaSpec, San Jose, Calif.), followed by sonication.
Based on the theoretical model proposed by Durell et al. (1994), the predicted pore region of the Aβ channel is made of the hydrophilic structure composed of residues 1-16. The structure formed by a radial polymer of four to six Aβ subunits predicts that rings of His residues surround and form the path for the ions passing through the pore. […] This interaction will block the entrance to the Aβ pore, and consequently affect the flow of current through the Aβ channel. Therefore, various compounds of known His coordinating capacity were studied for their interaction with Aβ channels incorporated into planar lipid bilayers. No membrane potential difference was applied to the lipid bilayers, to avoid any disturbing effect the membrane potential may have on the channel activity and in the conformations of the channel.
Here the effectiveness of the His-coordinating and His-related compounds was studied in terms of the time required to block the Aβ channel currents. […] When Aβ channels are incorporated into artificial membranes, they form multi-conductance systems. This is manifested by frequently fluctuating conductance between specific levels. […] The results were analyzed by an alternative procedure that quantifies the total ionic current flowing through the Aβ channel incorporated into the artificial lipid membrane at any given time. For this purpose, we integrated the total ionic current flowing through the membrane and averaged the amount of charge conducted in consecutive time intervals of 8 msec duration.
Planar Lipid Bilayer Methodology and Preparation of Proteoliposomes: The experiments were performed as described previously except that the suspension of palmitoyloleoyl phosphatidylserine and palmitoyloleoyl phosphatidylethanolamine was applied to an orifice of about 80-100 μm in diameter with a Teflon film separating two compartments. In addition, the liposome suspension (50 μl) was mixed with a stock aqueous solution of Aβ40 (1 mg/ml; obtained from Invitrogen, Carlsbad, Calif.).

[1] = tested on: PC12 cells, cortical and hippocampal neurons; assay: cells; settings: for protection of cells from Aβ cytotoxicity: three days of incubation, XTT and LDH, three cell types; for protection of cells from Aβ cytotoxicity / concentration required for 50% protection (EC50): Aβ peptide 5 μM; for concentration required for 50% protection (EC50): three different types of cells, three days
Method: Cell culture: PC 12 cells, derived from a transplantable rat pheochromocytoma (ATCC # CRL 1721), were cultured in the recommended ATCC medium. Primary cultures of hippocampal and cortical neurons from […] rat brains were grown in neurobasal medium/B27 (GIBCO). For neurons preparation, pregnant rats were anesthetized and killed to extract the fetuses. For pain alleviation, the animals were anesthetized following recommendations in the 2000 Report of the American Veterinary Medical Association Panel on Euthanasia. Brains from the fetuses were dissected out and neuronal cell cultures prepared as in a previously described protocol (Simakova and Arispe, 2006).
Cell viability assays: The percentage of cells protected from Aβ-induced cell death by various treatments was evaluated by means of a colorimetric XTT assay (Cell Proliferation Kit II, Roche, Mannheim, Germany). The cytotoxicity was also directly measured by the release of lactate dehydrogenase (LDH) from the cytosol into the media (Cytotoxicity Detection Kit (LDH), Roche, Mannheim, Germany).
Cell viability was examined using two different assays. These were the colorimetric XTT assay that quantifies metabolically active cells, and an assay that measures the release of lactate dehydrogenase (LDH) from the cytosol into the media, which evaluates the cell membrane integrity. […] The left panels (A, C and E) show the results from the XTT assay expressed as a percentage of cytotoxicity, and the right panels (B, D and F) show the results from the measurements of LDH released from cells into the media expressed as a percentage of protection of cells.

PC12 cells [2] = assay: Protection of PC12 cells from Aβ cytotoxicity (LDH release / cell viability assay); format: cell-based
Method: Previous studies have shown that the native peptide fragments from the Aβ polypeptide, NA4 (SEQ ID NO: 3) and NA7 (SEQ ID NO: 4), are able to block Aβ channel activity and protect cells from Aβ cytotoxicity. […] The concentration required for 50% protection (half maximal effective concentration, EC50) for NAHIS04 was less than 1 μM (Panel B). It was also between 2-3 times less than the EC50 for either NA4 or NA7.

PC12 cells [3] = assay: Aβ-induced intracellular free calcium change in FURA-2AM loaded PC12 cells; format: cell-based, rat; settings: Aβ 7.66 μM; for block of Aβ-induced intracellular calcium increase: compound 16.66 μM, 15 minute time course
Method: Intracellular Free Calcium measurements: Cells were plated on glass cover slips coated with poly-L-lysine and loaded with 2 μM FURA-2AM (Molecular Probes) calcium sensitive probe in incubation buffer (135 mM NaCl, 5 mM KCl, 2.5 mM CaCl2, 1.2 mM MgCl2, 10 mM glucose, 10 mM Hepes, pH 7.4). After 30 min of loading period, cells were treated with Aβ (7.66 μM). The time course of changes in the emission from FURA-2AM was observed using an inverted epi-fluorescence/phase contrast microscope equipped with a low-light level integrating CCD camera+microphotometer assembly (InCy I/P-2 Imaging & Photometry System, Intracellular Imaging INC.)
A 15 minute time course experiment was performed of the intracellular free calcium change in six FURA-2AM loaded PC 12 cells before and after the addition of Aβ (7.66 μM) and Aβ+His-related compound (16.66 μM).
Experiments in this Example were performed to determine if there was concentration dependence blockage of the Aβ-induced intracellular calcium response by NAHIS04. A time course of the intracellular free calcium change was taken in FURA-2AM loaded PC12 cells before and after the addition of Aβ (7.66 μM) to media containing different concentrations of NAHIS04. FIG. 11 illustrates that the concentration of the Aβ channel blocker is important and that the most efficient concentration of NAHIS04 for the blockage occurred at >5 μM.

`[Cl][Ni][Cl]` [Ni^2+, NiCl2, reference compound] was tested, and the “time to block the flow of ionic charges through Aβ channels” value (Aβ channel) was 120 s, the “reversibility of Aβ channel blockage after washing the chamber” value (“reversibility of Aβ channel blockage” below) (Aβ channel) was “irreversible” and the “reversibility of Aβ channel blockage” value (Aβ channel; listed as nickel) was “irreversibly block”. For the same molecule, the “blocking of Aβ channel current activity” value (Aβ channel) was “full block of the channel”, the “toxicity of the compound to cells” value ([1]; high concentrations) was “cell-dependent toxicity at high concentrations” and the “protection of cells from Aβ cytotoxicity” value [1] was “fully protect the cells against Aβ cytotoxicity”.
For `CC(=O)N[C@@H](CO)C(=O)NCC(=O)N[C@@H](Cc1ccc(O)cc1)C(=O)N[C@@H](CCC(=O)O)C(=O)N[C@H](C(=O)N[C@@H](Cc1c[nH]cn1)C(=O)N[C@@H](Cc1c[nH]cn1)C(N)=O)C(C)C` [NA4mod, Ac-SGYEVHH-CONH2] (Ac-SGYEVHH-NH2), the “percent protection of PC12 cells from Aβ cytotoxicity” value (PC12 cells [2]; Example 9, cell viability assay (FIG. 13)) was “percent protection is similar to the protection shown by NAHIS04”.
For `c1c[nH]cn1` [imidazole, reference compound], the “time to block the flow of ionic charges through Aβ channels” value (Aβ channel) was 30 s, the “reversibility of Aβ channel blockage” value (Aβ channel) was “irreversibly block; also recorded: irreversible” and the “blocking of Aβ channel current activity” value (Aβ channel) was “full block of the channel”. The EC50 ([1]; Rattus norvegicus, PC-12, 72 h, read-out: concentration required for 50% protection (EC50)) was 2000 to 3000 nM.
For `N[C@@H](Cc1c[nH]cn1)C(=O)O` [His, L-histidine, reference compound], the “blocking of the flow of ionic charges conducted by Aβ channels” value (from here on “blocking of the flow … by Aβ channels”) (Aβ channel) was “very slow-acting or had almost no channel-blocking capacity” and the “blocking of Aβ channel current activity” value (Aβ channel) was “only affect the current peaks of 5.8 and 4.2 pA; also recorded: mildly reduces the Aβ channel activity”.
`CC(=O)N[C@@H](Cc1cncn1C)C(=O)N[C@@H](Cc1cncn1C)C(N)=O` [NAHIS02-(π-Met), Ac-His-π-Met-His-π-Met-CONH2] was tested, and the “blocking of the flow … by Aβ channels” value (Aβ channel) was “showed no blocking capacity”, the “blocking of Aβ channel current activity” value (Aβ channel) was “did not affect the Aβ channel activity even at a fourfold higher concentration; also recorded: unable to block the Aβ channel activity even at a fourfold higher concentration” and the “protection of PC12 cells against Aβ” value (PC12 cells [2]; Example 6, LDH assay, Aβ40 for 24 hrs) was “did not protect the cells against Aβ”. For the same molecule, the “block of Aβ-induced intracellular calcium increase” value (PC12 cells [3]) was “has lost this ability”.
In the case of `CC(C)[C@H](NC(=O)[C@H](CCC(=O)O)NC(=O)[C@H](Cc1ccc(O)cc1)NC(=O)CNC(=O)[C@@H](N)CO)C(=O)N[C@@H](Cc1c[nH]cn1)C(=O)N[C@@H](Cc1c[nH]cn1)C(=O)O` [NA4, SGYEVHH, reference compound] (H-SGYEVHH-OH), the “protection of PC12 cells from Aβ cytotoxicity” value (PC12 cells [2]; Example 5, LDH release, three days) is reported as “not as effective at blocking the Aβ channel as NAHIS04”.
For `CC(=O)N[C@@H](Cc1c[nH]cn1)C(=O)N[C@@H](Cc1c[nH]cn1)C(=O)N[C@@H](Cc1c[nH]cn1)C(=O)N[C@@H](Cc1c[nH]cn1)C(N)=O` [NAHIS04, Ac-His-His-His-His-CONH2] (Ac-HHHH-NH2), the “time to reduce the flow of ionic charges through the membrane by 50%” value (Aβ channel) was 15 s, the “effect on Aβ channel current peaks” value (Aβ channel; 16.66 μM) was “removed all current peaks” and the “time to reduce the Aβ channel activity to occasional channel openings” value (Aβ channel; 16.66 μM) was 20 s. For the same molecule, the “speed of 50% reduction of ionic charge flow compared to NAHIS02” value (Aβ channel; NAHIS04 versus NAHIS02) was “eightfold”, the “reversibility of Aβ channel blockage” value (Aβ channel) was “irreversible; also recorded: stayed fully blocked after the chamber was washed” and the “blocking of Aβ channel current activity” value (Aβ channel) was “efficiently block the multiple conductances”. For the same molecule, the “protection of PC12 cells from Aβ cytotoxicity” value (PC12 cells [2]) was “showed better protection of the cells”, the EC50 (PC12 cells [2]; PC12 cells, LDH release, three days of incubation, read-out: concentration required for 50% protection (EC50)) was less than 1000 nM and the “protection of cells from Aβ cytotoxicity” value [1] was “fully protected the three different types of cells against Aβ”. For the same molecule, the “concentration required for 50% protection (EC50)” value [1] was “below the micromolar levels” and the “most efficient concentration for blockage of the Aβ-induced intracellular calcium response” value (PC12 cells [3]; 0.83 to 6.64 μM tested) was greater than 5 µM.
In the case of `CC(=O)N[C@@H](Cc1c[nH]cn1)C(=O)N[C@@H](Cc1c[nH]cn1)C(N)=O` [NAHIS02, Ac-His-His-CONH2], the “time to reduce the flow of ionic charges through the membrane by 50%” value (Aβ channel) is reported as 125 s, the “effect on Aβ channel current peaks” value (Aβ channel; 16.66 μM) is reported as “removed all current peaks” and the “time to reduce the Aβ channel activity to occasional channel openings” value (Aβ channel; 16.66 μM) is reported as “several minutes”. For the same molecule, the “time to totally block the Aβ channel activity” value (Aβ channel; 16.66 μM) was “less than three”, the “reversibility of Aβ channel blockage” value (Aβ channel) was “reversed; also recorded: some recovery of channel activity” and the “blocking of Aβ channel current activity” value (Aβ channel) was “efficiently block the multiple conductances”. The “concentration required for 50% protection (EC50)” value [1] was “below the micromolar levels” and the “block of Aβ-induced intracellular calcium increase” value (PC12 cells [3]) was “has the capacity to block Aβ-induced intracellular calcium increase”.
`CC(=O)N[C@@H](Cc1c[nH]cn1)C(N)=O` [NAHIS01, Ac-His-CONH2] was tested, and the “blocking of the flow … by Aβ channels” value (Aβ channel) was “does not fully prevent the flow of ionic charges” and the “blocking of Aβ channel current activity” value (Aβ channel) was “more effective at reducing all current peaks at much lower concentrations than unmodified His; also recorded: did not operate as a full channel blocker; also recorded: very efficient at blocking the Aβ ion channel”.
